In data set [1] the test system is P. aeruginosa PAO1 on THP-1-derived macrophages. The data set can be described thus: P. aeruginosa PAO1 colonization of THP-1-derived macrophages. The class given is cell-based. The protocol:
THP-1-derived macrophages were generated from THP-1 monocytes as previously described, with minor modifications. , Briefly, THP-1 monocytes were washed three times with antibiotic-free RPMI 1640 medium and resuspended in complete antibiotic-free RPMI 1640 supplemented with 300 nM phorbol 12-myristate 13-acetate (PMA). Cells were incubated for 24 h, followed by a 48 h rest period in PMA-free RPMI 1640 prior to use in subsequent experiments. […] PMA-differentiated THP-1-derived macrophages were similarly trypsinized and seeded into 24-well plates at 5 × 10^5 cells/well in complete, antibiotic-free RPMI supplemented with FBS. Cells were incubated overnight to allow for attachment. Immediately prior to infection, the medium was aspirated, and cells were washed three times with Dulbecco’s phosphate-buffered saline. […] Infection was synchronized by centrifuging plates at 1000g for 1 min. […] Following the infection period, the medium was aspirated, and cells were washed three times with DPBS to remove unattached bacteria and residual test compounds. […] In both cases, the resulting lysates were serially diluted in DPBS and plated on tryptic soy agar plates. Plates were incubated at 37 °C for 24 h, after which colonies were enumerated. Bacterial burden was expressed as the CFU per well.

Data set [2] in a line: ESI-MS analysis of A12 in buffer. Conditions: 2 mM A12 in FP assay buffer, no DTT. In kind it is physicochemical. The procedure: The same analysis was conducted after treatment of A12 with 2 mM DTT (Figure B). In this sample, the MS signals corresponding to the disulfide adduct were absent, leading to the conclusion that the dimerization of A12 by the formation of a disulfide bridge can occur under physiological conditions. When in monomeric form, the compound is likely degraded and/or not detectable by MS under the tested experimental conditions.
MS analysis was carried out on 5 μL samples of compound A12 (2 mM), of the proteins 6His-LexAPa and 6His-RecAPa (50 μM), and of the same proteins incubated with 2 mM A12 (2 h incubation at 25 °C, 10% v/v DMSO in 100 mM NaHCO3 pH 7.0). Aliquots of the latter samples were treated with 5 mM dithiothreitol (DTT) for 1 h at 25 °C before being buffer-exchanged in 100 mM NaHCO3 at pH 7.0. Samples were analyzed by an electrospray ionization (ESI) mass spectrometer equipped with a Xevo G2-XS ESI-Q-TOF mass spectrometer (Waters Corporation, Milford, Massachusetts, USA). Measurements were carried out at 1.5–1.8 kV capillary voltage and 30–40 V cone voltage.

The target in data set [3] is T1, LexAPa S125A / SOS-box dsDNA (Pseudomonas aeruginosa, UniProt P37452, S125A).
T1 construct: Concerning full-length LexAPa ^S125A, a biphasic melting curve was obtained for the pure protein; made in house; host or cells: E. coli BL21(DE3)
Kind of data set: EMSA of LexAPa S125A binding to SOS box dsDNA. In kind it is biochemical, P. aeruginosa. Conditions: 60-fold molar excess of A12. The protocol: LexAPa DNA-binding activity–which has to be preserved for an anti-SOS strategy to be effective–resides on the NTD but requires dimerization via the CTD. In this context, to rule out any interfering effect of A12 on LexAPa binding to SOS-box DNA, an EMSA was performed by incubating LexAPa with operator dsDNA sequences and different doses of A12, before analyzing the mixtures on native polyacrylamide gels.
An EMSA of the SOS-box dsDNA in the presence of full-length LexAPaS125A and different concentrations of the hit compound was performed to observe the potential interference effects of the selected drug on LexAPa binding to operator DNA sequences.
SOS-box dsDNA was produced by mixing equimolar amounts of AT-repeat_For and AT-repeat_Rev oligonucleotides (Supplementary, Table S1) in annealing buffer (10 mM Tris–HCl, 50 mM NaCl, 1 mM EDTA, pH 7.5), heating at 95 °C for 5 min, and then allowing the mixture to cool down to room temperature slowly overnight. The E. coli “AT-repeat” operator sequence was used as it is fully compatible with the P. aeruginosa SOS-box consensus (CTG-N2-T-N7-CAG).
1 μM SOS-box dsDNA was incubated either alone or with 8 μM 6His-LexAPa ^S125A in EMSA buffer (50 mM Tris–HCl, 750 mM KCl, 0.5 mM EDTA, pH 7.4). […]
A general note: In EMSA bound probe runs differently from free probe, usually more slowly.

Data set [4] deals with P. aeruginosa PAO1 on A549 lung epithelial cells. Kind of data set: P. aeruginosa PAO1 colonization of A549 lung epithelial cells. The class given is cell-based.
Data set [5] has as its target T2, LexAPa S125A (Pseudomonas aeruginosa, UniProt P37452, S125A).
T2 construct: Concerning full-length LexAPa ^S125A, a biphasic melting curve was obtained for the pure protein; made in house; host or cells: E. coli BL21(DE3)
The data set can be described thus: Differential scanning fluorimetry (thermal shift) on LexAPa S125A. In kind it is binding, P. aeruginosa. The following applies: A12 above 100 μM. The protocol:
To elucidate whether A12 binds RecAPa or LexAPa, the two proteins were submitted to a thermal shift assay by DSF, in the presence of different concentrations of A12 (30–1000 μM; Figure A–C). Controls devoid of A12 were included, as well.
Fluorescence of the SyproOrange dye was measured by a StepOne Real-Time PCR System (Applied Biosystems), while increasing the temperature from 25 to 95 °C (0.5 °C/min). Normalized fluorescence intensity curves were compared to observe macroscopic differences in the recorded melting profiles, while derivative curves were analyzed to find exact protein melting temperatures (T m, corresponding to derivative curve minimum). Melting curves were repeated twice, and duplicates were considered coherent if T m differences were lower than 1 °C.

In data set [6] the test system is P. aeruginosa PAO1. The data set can be described thus: Antimicrobial susceptibility testing (MIC). In kind it is cell-based, P. aeruginosa PAO1 (ATCC 15692). Conditions: A12 (32 μg/mL) (−). The procedure:
The MIC of compound A12 and antibiotics was determined by using the Clinical Laboratory Standard Institute (CLSI) recommendations with minor modifications. […] Microplates were incubated in a humidified incubator for 18 h at 37 °C, and the bacterial growth was quantified by OD600. According to CLSI, MICs are defined as the lowest concentrations of antimicrobial agents that prevent visible growth.

The mark [7] stands for this setting: combination of ciprofloxacin 0.5 μg/mL and A12 100 μg/mL.

T2 sequence (P37452 2-204 S125A): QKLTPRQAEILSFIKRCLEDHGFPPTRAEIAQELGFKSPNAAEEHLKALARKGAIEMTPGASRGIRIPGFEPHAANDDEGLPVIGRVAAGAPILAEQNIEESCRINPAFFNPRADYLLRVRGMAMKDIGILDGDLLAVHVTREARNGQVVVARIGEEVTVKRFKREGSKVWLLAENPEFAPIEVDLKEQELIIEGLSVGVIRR
T1 sequence (P37452 2-204 S125A): as above

In the case of `O=C(O)CCNc1ccccc1S` [A12, 3-(2-sulfanylanilino)propanoic acid], the figures for the “Intracellular (internalized) burden of PAO1 in THP-1-derived macrophages” value in data set [1] (A12 100 μg/mL alone) and in data set [1] (setting [7]) were “reduced the internalized bacterial growth” and “synergized with ciprofloxacin”, respectively. Further, the “Total (adherent + intracellular) burden of PAO1 on THP-1-derived macrophages” value in data set [1] (single agent: ciprofloxacin 0.5 μg/mL or A12 100 μg/mL, 3 h infection) is reported as “diminished”. In data set [2], the “Form of A12 in solution by MS” value is listed as “mainly exists as a disulfide-bridged self-dimer in solution”. In addition, the “LexAPa SOS box DNA-binding activity in the presence of A12” value in data set [3] is “retained full SOS box DNA-binding activity”. For the same compound, the “Intracellular (internalized) burden of PAO1 in A549 cells” value in data set [4] (A12 100 μg/mL alone) is given as “reduced the internalized bacterial growth”; in data set [4] (setting [7]) it was “synergized with ciprofloxacin”. For the same compound, the “Total (adherent + intracellular) burden of PAO1 on A549 lung cells” value in data set [4] (setting [7]) was “significantly reduced colonization”. Also, the “LexAPa S125A flexus of monophasic melting curve” value in data set [5] stood at 52.0 °C. Also, the “MIC on P. aeruginosa PAO1” value in data set [6] is on record as “no antimicrobial activity”. In addition, the MIC (as a rule, the lowest concentration that inhibits growth of the organism) in data set [6] (Pseudomonas aeruginosa, PAO1) is more than 32 µg/mL.

These data come from paper PMC12706794, “Identification and Characterization of a Small-Molecule Inhibitor of the Pseudomonas aeruginosa SOS Response” (ACS Infectious Diseases, 2025).
